Tests used:
[1] = system: HUVEC tube/network formation; test: Tube formation assay in Matrigel matrix, HUVEC; format: cell-based, human; conditions: for inhibition of angiogenesis in Notch-expressing HUVECs / number of branch points per field: HUVEC; for number of branch points per field: all concentrations (2-20 μM); for network formation by HUVEC: lowest concentration (2 μM), 24 hrs
Method: Tube formation assay—This assay was performed based on the protocol by Arnaoutova and Kleinman, 2010^37.

[2] = system: Notch target gene Hey1 in HUVEC; test: Quantitative RT-PCR of Notch target gene Hey1 in HUVEC; format: cell-based, human; conditions: 24 hrs post treatment
Method: RNA was extracted from cultured HUVEC or hLEC cells either 24 hrs or 72 hrs post treatment respectively using TRIzol reagent (Ambion 15596026) followed by DNase (Promega M6101) treatment and cDNA prepared using iScript (BioRad 170-8890). Quantitative RT-PCR was done on StepOnePlus (ABI) using TaqMan Gene Expression Master Mix (ThermoFisher Scientific 4369016). Gene expression was assessed using human Single-tube assays (Thermo Fisher Scientific/Applied Biosystems): GAPDH (4310884E), ACTB (Hs99999903_m1) and HEY1 (Hs01114113_m1). Comparative ΔΔCT method was used to analyze relative gene expression with ExpressionSuite Software (Thermo Fisher Scientific). Expression was normalized to housekeeping controls GAPDH and ACTB.

hLEC migration = test: Scratch migration assay, hLEC; format: cell-based, human
Method: (§1) Scratch migration assay—Migration assay was performed as per Liang et al., 2007^36, HUVECs and hLECs were grown to confluence in 24 well dishes, and then scratched with a 200 μL pipette tip. […] Four fields per well were imaged at T=0 hrs and at T=24 hrs post-scratch or T=72 hrs for HUVECs and hLECs respectively using an Olympus IX-81 inverted microscope equipped with a QImaging Retiga 4000R camera at 4× magnification. The percent change in migration was calculated by measuring the open area of the scratch at the above mentioned time-points (ImageJ). Results shown are representative of four independent experiments with HUVECs and three for hLECs.

HUVEC migration = test: Scratch migration assay, HUVEC; format: cell-based, human
Method: as §1

[3] = system: human lymphatic endothelial cells (hLECs); test: Cell viability (trypan blue, Countess automated cell counter), hLEC; format: cell-based; conditions: for change of hLEC viability at concentrations less than 20 μM: concentrations lower than 20 μM, vs untreated controls
Method: (§2) Dermal human lymphatic endothelial cells (hLECs) from human neonates (HMVEC-dLyNeo-Der, Lonza CC-2812) and human umbilical venous endothelial cells (HUVEC, Lonza CC-2517) were used for in vitro assays (below) within 8 passages and maintained in EGM-2MV bullet kit (Lonza CC3202) and EGM bullet kit media respectively.
(§3) Cell viability: To examine the effect of GSI on cell viability, hLEC and HUVEC cultures were incubated with effects of graded concentrations [2, 4, 6, 8, 10, 20 μM] of DAPT (Selleckchem, S2215) or RO4909297 (Selleckchem, S1575) [2-20 μM] for 24-72 hours. The percentage of viable cells was determined using the Countess automated cell counter (Thermofisher, C10227). Briefly, 80-90% confluent HUVEC and hLEC cultures were trypsinized, washed, and 10 μL of cell sample was mixed with an equal amount of 0.4% trypan blue stain and loaded onto the counting chamber.

[4] = as above; format: cell-based, human; conditions: human; 20 μM, hLEC; read-out: reduction of hLEC viability
Method: as §2, §3

Compound | inhibition of angiogenesis in Notch-expressing HUVECs [1] | number of branch points per field [1] | network formation by HUVEC [1] | lowest concentration that downregulated Hey1 expression in HUVECs [2] | hLEC migration reduced to (hLEC migration; 8 μM, hLEC, 72 hrs post-scratch) | HUVEC migration reduced to (HUVEC migration; 8 μM, 24 hrs post-scratch) | reduction of hLEC viability ([3]; 20 μM, hLEC) | change of hLEC viability at concentrations less than 20 μM [3] | effectiveness on hLEC migration compared with 8 μM DAPT (hLEC migration; 6 μM, hLEC) | reduction of migration in hLECs (hLEC migration; at lower concentrations compared to HUVECs) | effectiveness on HUVEC migration compared with 8 μM DAPT (HUVEC migration; 6 μM) | cytotoxicity at 20 μM [4]
C[C@H](NC(=O)Cc1cc(F)cc(F)c1)C(=O)N[C@H](C(=O)OC(C)(C)C)c1ccccc1 [DAPT, N-[N-(3,5-difluorophenacetyl-L-alanyl)]-S-phenylglycine t-butyl ester] | effective in inhibiting angiogenesis | significantly reduced | dramatically reduced | 4 µM | about 50% | about 35% | ~30% | without significant changes | – | – | – | –
CC(C)(C(=O)NCC(F)(F)C(F)(F)F)C(=O)N[C@@H]1C(=O)Nc2ccccc2-c2ccccc21 [RO4929097, 2,2-Dimethyl-N-[(7S)-6-oxo-6,7-dihydro-5H-dibenzo[b,d]azepin-7-yl]-N′-(2,2,3,3,3-pentafluoropropyl)malonamide] | effective in inhibiting angiogenesis | significantly reduced | dramatically reduced | 2 µM | – | – | – | without significant changes | more effective | greater than 50% | more effective | ~30%

Reference: patent publication US20220133672A1, “NOTCH INHIBITORS FOR THE TREATMENT OF VASCULAR MALFORMATIONS” (The University of North Carolina at Chapel Hill, priority 2018, published 2022)
